Experimental data as given in patent publication US20050009837A1, “Modulators of lipid metabolism and methods of use” (City of Hope, priority 2003, published 2005).

How the values were obtained:
SREBP-1c expression = assay: Real-time PCR of SREBP-1c expression in HepG2 cells; format: cell-based, human; settings: 100 nM, 24 hours, versus untreated
Protocol: Real time PCR was then performed on cDNA derived from RNA isolated form the treated HepG2 cells as follows. Real time quantitative PCR assays were performed using an Applied Biosystems 7700 sequence detector (Applied Biosystems). Each reaction mixture contained 50 ng cDNA, 1.25 pmol each forward and reverse primer, and […] 2× SYBR Green PCR master mix (Applied Biosystems) in a final volume of 25 μl. The PCR conditions were 50° C. for 2 min, 95° C. for 10 min, and 40 cycles of 95° C. for 15 sec and 60° C. for 1 min. Samples were run in duplicate for each primer pair. Expression of glyceraldehyde-3-phosphate dehydrogenase (GAPDH) was analyzed in parallel as an internal control. Each sample was normalized to GAPDH and is represented in the Figure showing the results as arbitrary units with the expression levels in untreated cells assigned a value of one. The primer sequences are as follows: human SREBP-1c forward [NT] ID NO:1); human SREBP-1c reverse [NT] ID NO:2); human GAPDH forward [NT] ID NO:3) and human GAPDH reverse [NT] ID NO:4).

[1] = mice fed the agonist; cited from earlier work
NIH3T3-L1 adipocytes = assay: Triglyceride content (Nile Red) of NIH3T3-L1 cells differentiated to adipocytes; format: cell-based; settings: T0901317 200 nM or Clotrimazole 7.5 μm, 7 days
Protocol: NIH 3T3-L1 cells were maintained in growth media consisting of Dulbecco's modified Eagle's medium (DMEM) supplemented with 10% calf bovine serum (CBS), 50 U/ml penicillin G and 50 μg/ml streptomycin sulfate. To induce NIH 3T3-L1 differentiation into adipocytes, confluent cells were transferred from their growth media to DMEM containing 10% fetal bovine serum (FBS), 5 μg/ml insulin, 0.5 mM 3-isobutyl-1-methylxanthine (IBMX) and 1 μM dexamethasone for 7 days. During the differentiation period, cells also optionally received 200 nM T0901317, 7.5 μM Clotrimazole or both.
NIH3T3-L1 cells were allowed to differentiate for 7 days in the presence of a well-established differentiation cocktail containing dexamethazole (1 μm), IBMX (0.5 mM) and insulin (5 μg/ml) in the absence or presence of T0901317 (200 nM) or Clotrimazole (7.5 μm). The cells then were fixed and stained with Nile Red, which stains triglycerides (TG) green, and DAPI to visualize nuclei (in blue). TG content of the cell reflected increased or decreased lipogenesis.

LXRα = LXRα (Homo sapiens, UniProt Q13133); assay: LXR activity, fatty acids
Sequence of LXRα (Q13133 whole entry): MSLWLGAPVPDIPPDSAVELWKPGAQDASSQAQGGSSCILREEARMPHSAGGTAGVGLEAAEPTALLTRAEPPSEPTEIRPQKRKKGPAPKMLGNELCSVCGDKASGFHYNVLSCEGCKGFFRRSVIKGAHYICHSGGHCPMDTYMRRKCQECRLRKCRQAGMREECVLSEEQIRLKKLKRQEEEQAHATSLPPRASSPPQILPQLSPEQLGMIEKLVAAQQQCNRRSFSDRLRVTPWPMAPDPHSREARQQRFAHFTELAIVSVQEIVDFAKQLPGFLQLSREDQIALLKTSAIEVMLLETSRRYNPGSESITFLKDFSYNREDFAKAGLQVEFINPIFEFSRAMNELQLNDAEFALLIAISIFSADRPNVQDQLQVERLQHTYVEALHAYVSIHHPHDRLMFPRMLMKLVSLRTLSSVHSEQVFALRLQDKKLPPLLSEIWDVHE

SMILES	increase of SREBP-1c expression (SREBP-1c expression)	plasma triglycerides compared to mice fed a control diet [1]	TG content compared to differentiation cocktail only (NIH3T3-L1 adipocytes)	effect on LXR activity (LXRα)
O=S(=O)(c1ccccc1)N(CC(F)(F)F)c1ccc(C(O)(C(F)(F)F)C(F)(F)F)cc1 [T0901317]	up to 4 fold	elevated plasma triglycerides	small overall increase in TG content	
CC/C=C\C/C=C\C/C=C\CCCCCCCC(=O)O [αlinoleic acid]				LXR antagonist
